In experiment [1] the target is T1, human adenosine A2a receptor (Homo sapiens, UniProt P29274).
T1 construct: expressed in transfected cells; host or cells: CHO-K1
Nature of the experiment: Adenosine A2a Receptor Functional Assay (A2AGAL2). In kind it is cell-based. The following applies: CHO-K1 cells, cAMP inducible beta-galactosidase reporter, 15 nM NECA agonist challenge. The procedure: Adenosine A2a Receptor Functional Assay (A2AGAL2)
To initiate the functional assay, cryopreserved CHO-K1 cells overexpressing the human adenosine A2a receptor and containing a cAMP inducible beta-galactosidase reporter gene were thawed, centrifuged, DMSO containing media removed, and then seeded with fresh culture media into clear 384-well tissue culture treated plates (BD #353961) at a concentration of 10K cells/well. Prior to assay, these plates were cultured for two days at 37° C., 5% CO2, 90% Rh. On the day of the functional assay, culture media was removed and replaced with 45 uL assay medium (Hams/F-12 Modified (Mediatech #10-080CV) supplemented w/0.1% BSA). Test compounds were diluted and 11 point curves created at a 1000× concentration in 100% DMSO. Immediately after addition of assay media to the cell plates, 50 nL of the appropriate test compound antagonist or agonist control curves were added to cell plates using a Cartesian Hummingbird. Compound curves were allowed to incubate at room temperature on cell plates for approximately 15 minutes before addition of a 15 nM NECA (Sigma E2387) agonist challenge (5 uL volume). A control curve of NECA, a DMSO/Media control, and a single dose of Forskolin (Sigma F3917) were also included on each plate. After additions, cell plates were allowed to incubate at 37° C., 5% CO2, 90% Rh for 5.5-6 hours. After incubation, media was removed, and cell plates were washed 1×50 uL with DPBS w/o Ca & Mg (Mediatech 21-031-CV). Into dry wells, 20 uL of 1× Reporter Lysis Buffer (Promega E3971 (diluted in dH2O from 5× stock)) was added to each well and plates frozen at −20° C. overnight. For β-galactosidase enzyme colorimetric assay, plates were thawed out at room temperature and 20μL 2× assay buffer (Promega) was added to each well. Color was allowed to develop at 37° C., 5% CO2, 90% Rh for 1-1.5 h or until reasonable signal appeared. The calorimetric reaction was stopped with the addition of 60 μL/well 1M sodium carbonate. Plates were counted at 405 nm on a SpectraMax Microplate Reader (Molecular Devices). Data was analyzed in Microsoft Excel and IC/EC50 curves were fit using a standardized macro.

Experiment [2] concerns the target T2, human adenosine A1 receptor (Homo sapiens, UniProt P30542).
T2 construct: expressed in transfected cells; host or cells: CHO-K1
T2 sequence (P30542 1-326): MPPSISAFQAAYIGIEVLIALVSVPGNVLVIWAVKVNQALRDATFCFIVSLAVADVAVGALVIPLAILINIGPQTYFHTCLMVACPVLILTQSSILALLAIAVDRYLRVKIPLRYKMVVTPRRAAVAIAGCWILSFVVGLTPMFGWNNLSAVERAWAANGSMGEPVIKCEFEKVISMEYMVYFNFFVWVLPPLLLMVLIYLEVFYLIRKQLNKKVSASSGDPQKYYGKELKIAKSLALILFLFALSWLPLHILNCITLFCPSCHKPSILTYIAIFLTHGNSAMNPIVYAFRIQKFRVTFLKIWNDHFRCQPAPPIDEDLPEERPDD
Nature of the experiment: Adenosine A1 Receptor Functional Assay (A1GAL2). It counts as cell-based. The note with it: CHO-K1 cells, cAMP inducible beta-galactosidase reporter, 4 nM r-PIA/1 uM Forskolin agonist challenge. The procedure: Adenosine A1 Receptor Functional Assay (A1GAL2)
To initiate the functional assay, cryopreserved CHO-K1 cells overexpressing the human adenosine A1 receptor and containing a cAMP inducible beta-galactosidase reporter gene were thawed, centrifuged, DMSO containing media removed, and then seeded with fresh culture media into clear 384-well tissue culture treated plates (BD #353961) at a concentration of 10K cells/well. Prior to assay, these plates were cultured for two days at 37° C., 5% CO2, 90% Rh. On the day of the functional assay, culture media was removed and replaced with 45 uL assay medium (Hams/F-12 Modified (Mediatech #10-080CV) supplemented w/0.1% BSA). Test compounds were diluted and 11 point curves created at a 1000× concentration in 100% DMSO. Immediately after addition of assay media to the cell plates, 50 nL of the appropriate test compound antagonist or agonist control curves were added to cell plates using a Cartesian Hummingbird. Compound curves were allowed to incubate at room temperature on cell plates for approximately 15 minutes before addition of a 4 nM r-PIA (Sigma P4532)/1 uM Forskolin (Sigma F3917) agonist challenge (5 uL volume). A control curve of r-PIA in 1 uM Forskolin, a DMSO/Media control, and a single dose of Forskolin were also included on each plate. After additions, cell plates were allowed to incubate at 37° C., 5% CO2, 90% Rh for 5.5-6 hours. After incubation, media was removed, and cell plates were washed 1×50 uL with DPBS w/o Ca & Mg (Mediatech 21-031-CV). Into dry wells, 20 uL of 1× Reporter Lysis Buffer (Promega E3971 (diluted in dH2O from 5× stock)) was added to each well and plates frozen at −20° C. overnight. For β-galactosidase enzyme colorimetric assay, plates were thawed out at room temperature and 20 μL 2× assay buffer (Promega) was added to each well. Color was allowed to develop at 37° C., 5% CO2, 90% Rh for 1-1.5 h or until reasonable signal appeared. The colorimetric reaction was stopped with the addition of 60 μL/well 1M sodium carbonate. Plates were counted at 405 nm on a SpectraMax Microplate Reader (Molecular Devices). Data was analyzed in Microsoft Excel and IC/EC50 curves were fit using a standardized macro.

pKi: −log10 of the molar value. Structures can show the parent of a compound that is named as a salt.

T1 sequence (P29274 whole entry): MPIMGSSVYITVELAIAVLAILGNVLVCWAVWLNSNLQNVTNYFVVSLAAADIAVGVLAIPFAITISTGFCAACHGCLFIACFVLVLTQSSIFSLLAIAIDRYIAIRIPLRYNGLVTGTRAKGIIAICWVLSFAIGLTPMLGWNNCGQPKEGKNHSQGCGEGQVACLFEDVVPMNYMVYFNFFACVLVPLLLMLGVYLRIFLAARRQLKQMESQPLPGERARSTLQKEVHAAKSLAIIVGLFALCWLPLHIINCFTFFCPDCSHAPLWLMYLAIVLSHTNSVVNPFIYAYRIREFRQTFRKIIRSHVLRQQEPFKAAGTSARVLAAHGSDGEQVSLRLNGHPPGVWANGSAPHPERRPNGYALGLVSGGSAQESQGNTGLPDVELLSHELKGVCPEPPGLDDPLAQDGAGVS

For “6-(6-Chloro-pyridin-3-ylmethyl)-2-(5-methyl-furan-2-yl)-thieno[2,3-d]pyrimidin-4-ylamine [Example 1]”, the negative-log Ki (pKi) (commonly the Ki on a negative log10 scale, so that one unit is a factor of ten) is 6.90 in experiment [1] and 5.80 in experiment [2].

As to `Nc1nc(-c2ncco2)nc2sc(Cc3ccccn3)cc12` [Example 3, 2-Oxazol-2-yl-6-pyridin-2-ylmethyl-thieno[2,3-d]pyrimidin-4-ylamine hydrochloride], the pKi is 8.18 in experiment [1] and 6.45 in experiment [2].

For `Nc1nc(-c2cnco2)nc2sc(Cc3ccccn3)cc12` [Example 15, 2-Oxazol-5-yl-6-pyridin-2-ylmethyl-thieno[2,3-d]pyrimidin-4-ylamine], the pKi in experiment [1] was 8.01; in experiment [2], 6.76.

Consider `Cc1ccc(-c2nc(N)c3cc(Cc4ccccn4)sc3n2)o1` [Example 16, 2-(5-Methyl-furan-2-yl)-6-pyridin-2-ylmethyl-thieno[2,3-d]pyrimidin-4-ylamine], for which the results for the pKi in experiment [1] and in experiment [2] were 8.93 and 7.52, respectively.

In the case of `Cc1csc(-c2nc(N)c3cc(Cc4ccccn4)sc3n2)n1` [Example 17, 2-(4-Methyl-thiazol-2-yl)-6-pyridin-2-ylmethyl-thieno[2,3-d]pyrimidin-4-ylamine], the pKi in experiment [1] is 8.15; in experiment [2], 7.00.

Regarding `Nc1nc(-c2ncco2)nc2sc(Cc3cccnc3)cc12` [Example 18, 2-Oxazol-2-yl-6-pyridin-3-ylmethyl-thieno[2,3-d]pyrimidin-4-ylamine], the pKi was 7.52 in experiment [1] and 6.31 in experiment [2].

For the molecule `Nc1nc(-c2ccc(C3CC3)o2)nc2sc(Cc3cccnc3)cc12` [Example 19, 2-(5-Cyclopropyl-furan-2-yl)-6-pyridin-3-ylmethyl-thieno[2,3-d]pyrimidin-4-ylamine], the pKi was 6.39 in experiment [1] and 6.24 in experiment [2].

Consider `Nc1nc(-c2ccc(C3CC3)o2)nc2sc(Cc3ccccn3)cc12` [Example 20, hydrochloride], for which the pKi is 6.89 in experiment [1] and 6.47 in experiment [2].

Turning to `N#Cc1cccc(-c2nc(N)c3cc(Cc4cccnc4)sc3n2)n1` [Example 21, 6-(4-Amino-6-pyridin-3-ylmethyl-thieno[2,3-d]pyrimidin-2-yl)-pyridine-2-carbonitrile], the negative logarithm of the Ki (pKi) in experiment [1] is 8.28; in experiment [2], 7.55.

As for `Nc1nc(-c2ccc(C(F)F)o2)nc2sc(C(O)c3ncccc3F)cc12` (stereo not shown) [Example 23, [4-Amino-2-(5-difluoromethyl-furan-2-yl)-thieno[2,3-d]pyrimidin-6-yl]-(3-fluoro-pyridin-2-yl)-methanol], the pKi in experiment [1] was 8.42; in experiment [2], 7.23.

Regarding `Nc1nc(-c2ccc(C(F)F)o2)nc2sc(Cc3ncccc3F)cc12` [Example 24, 2-(5-Difluoromethyl-furan-2-yl)-6-(3-fluoro-pyridin-2-ylmethyl)-thieno[2,3-d]pyrimidin-4-ylamine], the results for the pKi in experiment [1] and in experiment [2] were 8.21 and 7.03, respectively.

Consider `Nc1nc(-c2ccc(C(F)F)o2)nc2sc(C(=O)c3ncccc3F)cc12` [Example 25, [4-Amino-2-(5-difluoromethyl-furan-2-yl)-thieno[2,3-d]pyrimidin-6-yl]-(3-fluoro-pyridin-2-yl)-methanone], for which the pKi in experiment [1] was 7.60; in experiment [2] it was 6.08.

Turning to `COc1cccnc1C(O)c1cc2c(N)nc(-c3ccc(C(F)F)o3)nc2s1` (stereo not shown) [Example 29, [4-Amino-2-(5-difluoromethyl-furan-2-yl)-thieno[2,3-d]pyrimidin-6-yl]-(3-methoxy-pyridin-2-yl)-methanol], the pKi in experiment [1] is 8.62; in experiment [2] it was 7.60.

`Nc1nc(-c2ccc(C(F)F)o2)nc2sc(C(O)c3ccccn3)cc12` (stereo not shown) [Example 31, [4-Amino-2-(5-difluoromethyl-furan-2-yl)-thieno[2,3-d]pyrimidin-6-yl]-pyridin-2-yl-methanol]: the pKi in experiment [1] is 8.32; in experiment [2] it was 7.33.

With `Nc1nc(-c2ccc(C(F)F)o2)nc2sc(C(O)c3ncccc3Br)cc12` (stereo not shown) [Example 32, [4-Amino-2-(5-difluoromethyl-furan-2-yl)-thieno[2,3-d]pyrimidin-6-yl]-(3-bromo-pyridin-2-yl)-methanol], the pKi in experiment [1] was 8.79; in experiment [2], 7.63.

Regarding `Nc1nc(-c2ccc(C(F)F)o2)nc2sc(Cc3ncccc3Br)cc12` [Example 33, 6-(3-Bromo-pyridin-2-ylmethyl)-2-(5-difluoromethyl-furan-2-yl)-thieno[2,3-d]pyrimidin-4-ylamine], the pKi in experiment [1] was 8.66; in experiment [2], 7.67.

As for `Nc1nc(-c2ccc(C(F)F)o2)nc2sc(C(O)c3ncccc3O)cc12` (stereo not shown) [Example 34, 2-{[4-Amino-2-(5-difluoromethyl-furan-2-yl)-thieno[2,3-d]pyrimidin-6-yl]-hydroxy-methyl}-pyridin-3-ol], the pKi was 8.37 in experiment [1] and 6.96 in experiment [2].

Regarding `Nc1nc(-c2ccc(C(F)F)o2)nc2sc(Cc3ccccn3)cc12` [Example 35, 2-(5-Difluoromethyl-furan-2-yl)-6-pyridin-2-ylmethyl-thieno[2,3-d]pyrimidin-4-ylamine], the values for the pKi in experiment [1] and in experiment [2] were 8.33 and 7.21, respectively.

Regarding `CC(O)(c1ccccn1)c1cc2c(N)nc(-c3ccc(C(F)F)o3)nc2s1` (stereo not shown) [Example 36, 1-[4-Amino-2-(5-difluoromethyl-furan-2-yl)-thieno[2,3-d]pyrimidin-6-yl]-1-pyridin-2-yl-ethanol], the figures for the pKi in experiment [1] and in experiment [2] were 7.44 and 6.57, respectively.

In the case of `COc1cccnc1Cc1cc2c(N)nc(-c3ccc(C(F)F)o3)nc2s1` [Example 37, 2-(5-Difluoromethyl-furan-2-yl)-6-(3-methoxy-pyridin-2-ylmethyl)-thieno[2,3-d]pyrimidin-4-ylamine], the figures for the pKi in experiment [1] and in experiment [2] were 8.64 and 7.49, respectively.

(Values after patent US20100093756A1, “HETEROARYL SUBSTITUTED THIENO[2,3-d]PYRIMIDINE AND THEIR USE AS ADENOSINE A2a RECEPTOR ANTAGONISTS” (priority 2008, published 2010).)
